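Compound exposure: 48 hours, 5 concentrations, 96-well plates. Abbreviation: GI50, concentration required for 50% inhibition of growth.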 Calls of active or inactive are those of the source. Rule as the data show it: active = GI50 up to about 1.1 µM and inactive = higher.

The source of these data is ChEMBL document CHEMBL1201862, “PubChem BioAssay data set” (2004).

Among the test systems are MCF7; NCI-H522; LOX IMVI; A498; NCI-H226; NCI/ADR-RES; K562; SNB-75; SNB-19; U-251; HCT-116; SW-620; EKVX; SK-MEL-28; CCRF-CEM; UACC-62; OVCAR-8; NCI-H460; HCC 2998; RPMI-8226.
What all share (assay): NCI tumour cell line growth inhibition, 48 h

Consider `c1ccc2c(c1)OCCc1cn[nH]c1-2`, for which the GI50 with MCF7 was > 100 µM (inactive); with NCI-H522, > 100 µM (inactive); in the test on LOX IMVI, > 100 µM (inactive); in the test with A498, > 93.5 µM (inactive); with NCI-H226 it was 22.2 µM (inactive); in the test with NCI/ADR-RES it was > 100 µM (inactive). In addition, the GI50 is > 100 µM (inactive) with K562; 42 µM (inactive) in the test with SNB-75; > 100 µM (inactive) in the test on SNB-19; > 100 µM (inactive) in the test on U-251; > 100 µM (inactive) in the test on HCT-116; > 100 µM (inactive) in the test with SW-620. Also, the GI50 in the test on EKVX was 80.5 µM (inactive); in the test with SK-MEL-28, > 100 µM (inactive); with CCRF-CEM, > 100 µM (inactive); with UACC-62 it was 66.7 µM (inactive); in the test on OVCAR-8 it was > 100 µM (inactive); with NCI-H460, > 100 µM (inactive). Besides, in the test on HCC 2998, the GI50 was > 100 µM (inactive).

For `C[C@]12CC[C@@H]3c4ccc(OCCN5CCCC5)cc4CC[C@H]3[C@@H]1CCC2=O`, the GI50 was 22.5 µM (inactive) in the test on MCF7; 7.38 µM (inactive) in the test on LOX IMVI; 81.1 µM (inactive) with A498; 19.6 µM (inactive) with NCI-H226; 24.7 µM (inactive) in the test on NCI/ADR-RES; 25.4 µM (inactive) in the test with K562. Besides, the GI50 in the test with SNB-19 is 64.3 µM (inactive); in the test on U-251 it was 75.2 µM (inactive); in the test with SW-620, 41 µM (inactive); in the test with EKVX, 18.2 µM (inactive); with SK-MEL-28 it was 49.5 µM (inactive); with CCRF-CEM, 37.9 µM (inactive). In addition, the GI50 in the test on RPMI-8226 is 23.7 µM (inactive); in the test on UACC-62, 23.8 µM (inactive); with OVCAR-8, 25.6 µM (inactive); with NCI-H460, 19.9 µM (inactive); in the test on HCC 2998 it was 10.3 µM (inactive).

As for `NC(CCP(=O)(O)CCC1C=CC=CC1)C(=O)O` (stereo not drawn), the GI50 in the test on NCI-H522 was 20.7 µM (inactive); in the test on LOX IMVI, > 100 µM (inactive); in the test on NCI/ADR-RES, > 100 µM (inactive); with K562, > 100 µM (inactive); with SNB-75, > 100 µM (inactive); with SNB-19, > 100 µM (inactive). The GI50 in the test with U-251, in the test with HCT-116, in the test on SW-620, with EKVX, with SK-MEL-28 and with CCRF-CEM was > 100 µM (inactive) in each case. In addition, the GI50 in the test with RPMI-8226, in the test on UACC-62, in the test with OVCAR-8, in the test with NCI-H460 and in the test with HCC 2998 was > 100 µM (inactive) each time.

For `COc1ccc(C2SCc3nc4ccccc4n32)cc1` (stereo not drawn), the GI50 is 0.986 µM (active) in the test with NCI-H522; 5.78 µM (inactive) in the test with LOX IMVI; 5.13 µM (inactive) with A498; 8.99 µM (inactive) with NCI-H226; 2.34 µM (inactive) in the test with K562; 1.82 µM (inactive) with SNB-75. The GI50 is 6.07 µM (inactive) with SNB-19; 3.33 µM (inactive) with U-251; 3.44 µM (inactive) in the test on SW-620; 19.5 µM (inactive) in the test on EKVX; 4.32 µM (inactive) with SK-MEL-28; 3.49 µM (inactive) with CCRF-CEM. The GI50 is 2.96 µM (inactive) with RPMI-8226, 3.58 µM (inactive) in the test on UACC-62, 6.07 µM (inactive) in the test on OVCAR-8 and 3.86 µM (inactive) in the test on NCI-H460.

As for `O=C(c1ccccc1)c1ccc2n[se]nc2c1`, the GI50 with NCI-H522 is 25.2 µM (inactive); with LOX IMVI it was 29.4 µM (inactive); in the test on A498, 31.8 µM (inactive); in the test on K562 it was 4.29 µM (inactive); in the test on SNB-75, 18.4 µM (inactive); in the test on SNB-19, > 100 µM (inactive). For the same compound, the GI50 was > 100 µM (inactive) in the test on U-251; 10.3 µM (inactive) in the test with SW-620; 56.5 µM (inactive) with EKVX; > 100 µM (inactive) in the test with SK-MEL-28; 17.8 µM (inactive) with CCRF-CEM; 28.4 µM (inactive) in the test with RPMI-8226. For the same compound, the values for the GI50 in the test on UACC-62, with OVCAR-8 and in the test with HCC 2998 were 8.51 µM (inactive), 73.5 µM (inactive) and 8.93 µM (inactive), respectively.

`COc1cc(-c2cc(=O)c3c(O)c(CC=C(C)C)c(O)cc3o2)ccc1O`: the GI50 in the test with MCF7 is 25.1 µM (inactive); in the test on LOX IMVI it was 19.1 µM (inactive); in the test on A498, > 50 µM (inactive); with NCI-H226 it was > 50 µM (inactive); in the test with NCI/ADR-RES it was 16 µM (inactive); with K562, 16.7 µM (inactive). The GI50 was > 50 µM (inactive) in the test with SNB-19; 24.1 µM (inactive) in the test on U-251; 16.2 µM (inactive) in the test with HCT-116; 16.7 µM (inactive) in the test with SW-620; 7.29 µM (inactive) in the test on EKVX; 1.17 µM (inactive) in the test with SK-MEL-28. Besides, the GI50 with CCRF-CEM is 16.8 µM (inactive); in the test on RPMI-8226, 11.7 µM (inactive); with UACC-62, 23 µM (inactive); with OVCAR-8 it was 26.7 µM (inactive); with NCI-H460, 19.5 µM (inactive).

As to `CCOC(=O)CCC(NC(=O)OCc1ccccc1)C(=O)NC(CCC(=O)OCC)C(=O)NNC(=O)OC(C)(C)C` (stereo not drawn), the GI50 in the test on MCF7 was > 100 µM (inactive); in the test with NCI-H522 it was > 100 µM (inactive); in the test on NCI-H226, 36.6 µM (inactive); in the test on NCI/ADR-RES, > 100 µM (inactive); in the test on K562, > 100 µM (inactive); in the test with SNB-75, > 100 µM (inactive). The GI50 with SNB-19 is > 100 µM (inactive); in the test with U-251, > 100 µM (inactive); with HCT-116, > 100 µM (inactive); with SK-MEL-28 it was > 100 µM (inactive); with CCRF-CEM, 38.5 µM (inactive); with RPMI-8226 it was > 100 µM (inactive). For the same compound, the GI50 with UACC-62, with OVCAR-8, in the test on NCI-H460 and in the test on HCC 2998 was > 100 µM (inactive) each time.

For the compound `Cc1ccc(C)c(C(=O)CC2OC(O)C(Cl)C2Cl)c1` (stereo not drawn), the GI50 was 15.6 µM (inactive) in the test on NCI-H522; 18.9 µM (inactive) in the test on LOX IMVI; > 100 µM (inactive) in the test on A498; > 100 µM (inactive) with NCI-H226; 32.5 µM (inactive) in the test with K562; 52 µM (inactive) with SNB-75. Moreover, the GI50 in the test with SNB-19 was > 100 µM (inactive); with U-251, > 100 µM (inactive); in the test on HCT-116, 29.7 µM (inactive); in the test on SW-620 it was 18.7 µM (inactive); in the test on EKVX it was > 100 µM (inactive); with SK-MEL-28 it was 39.5 µM (inactive). Moreover, the GI50 with CCRF-CEM was 41.1 µM (inactive); in the test on RPMI-8226, 12.4 µM (inactive); in the test with UACC-62, 57.3 µM (inactive); in the test on OVCAR-8, 18.3 µM (inactive); in the test with NCI-H460 it was > 100 µM (inactive); in the test with HCC 2998, > 100 µM (inactive).

As for `CCOC(=O)CSc1nc(N)c2c(-c3ccc(OC)c(OC)c3)c3c(nc2n1)CCCC3`, the GI50 with MCF7 was > 100 µM (inactive); in the test with LOX IMVI it was > 100 µM (inactive); in the test with NCI/ADR-RES, 60.3 µM (inactive); in the test on K562, > 100 µM (inactive); with SNB-75, 14.4 µM (inactive); in the test on SNB-19 it was 95.5 µM (inactive). The GI50 is > 100 µM (inactive) in the test on U-251; > 100 µM (inactive) in the test with HCT-116; > 100 µM (inactive) in the test with SW-620; 95.3 µM (inactive) with EKVX; > 100 µM (inactive) in the test on SK-MEL-28; > 100 µM (inactive) with CCRF-CEM. The GI50 is > 100 µM (inactive) in the test on RPMI-8226, > 100 µM (inactive) with UACC-62, 24.3 µM (inactive) with OVCAR-8 and > 100 µM (inactive) in the test on NCI-H460.

Turning to `O=C1c2cccc3cc4ccccc4c(c23)C(=O)N1CCNCCNCCNCCN1C(=O)c2cccc3cc4ccccc4c(c23)C1=O`, the GI50 in the test with MCF7 was < 0.01 µM (active); with LOX IMVI, < 0.01 µM (active); with A498 it was 0.19 µM (active); in the test with NCI-H226 it was 33.6 µM (inactive); with NCI/ADR-RES, < 0.0136 µM (active); in the test with K562 it was < 0.01 µM (active). Further, the GI50 in the test on SNB-75 is < 0.0141 µM (active); in the test on SNB-19 it was < 0.01 µM (active); with U-251 it was < 0.01 µM (active); in the test on HCT-116, < 0.01 µM (active); with SW-620, < 0.01 µM (active); with EKVX it was 0.129 µM (active). Moreover, the GI50 was < 0.01 µM (active) in the test on SK-MEL-28; < 0.01 µM (active) in the test with CCRF-CEM; < 0.01 µM (active) in the test on UACC-62; < 0.01 µM (active) with OVCAR-8; < 0.01 µM (active) with NCI-H460; < 0.0134 µM (active) with HCC 2998.

For `O=C(Nc1ccccc1F)c1c(O)nc2sccn2c1=O`, the GI50 in the test with MCF7, in the test on NCI-H522, in the test with LOX IMVI, with A498, with NCI-H226 and with NCI/ADR-RES was > 10 µM (inactive) each time. In addition, the GI50 with SNB-75, in the test on SNB-19, in the test with U-251, with HCT-116, with SW-620 and in the test with EKVX was > 10 µM (inactive) each time. Besides, the GI50 in the test with SK-MEL-28, in the test on CCRF-CEM, in the test on RPMI-8226, with UACC-62, in the test with OVCAR-8 and in the test with NCI-H460 was > 10 µM (inactive) throughout. In the test on HCC 2998, the GI50 was > 10 µM (inactive).
